Test results taken from PubChem BioAssay (NCI).
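Grown in 96-well plates, cells were treated for 48 hours with each compound at five concentrations. Insufficient inhibition: endpoint recorded as highest concentration tested. The concentration for 50% growth inhibition is given as GI50. At the TGI there is no net growth.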

Columns and labels:
Assay in all cases: growth of human tumour cells (NCI), 48 h
786-0 renal = system: 786-0 renal
NCI-H226 lung = system: NCI-H226 lung
SNB-19 CNS = system: SNB-19 CNS
SF-295 CNS = system: SF-295 CNS
OVCAR-8 ovarian = system: OVCAR-8 ovarian
EKVX NSCLC = system: EKVX NSCLC
SNB-75 CNS = system: SNB-75 CNS
PC-3 prostate = system: PC-3 prostate
DU-145 prostate = system: DU-145 prostate
HOP-62 NSCLC = system: HOP-62 NSCLC

Compound: NC(=O)N/N=C(\C(=O)C(=O)Nc1ccc(Cl)c(C(F)(F)F)c1)c1nc2ccc(C(=O)c3ccccc3)cc2[nH]c1=O
- TGI (786-0 renal): > 100 µM
- TGI (NCI-H226 lung): > 100 µM
- TGI (SNB-19 CNS): > 100 µM
- TGI (SF-295 CNS): > 100 µM
- TGI (OVCAR-8 ovarian): > 100 µM
- TGI (EKVX NSCLC): > 100 µM

Compound: COc1ccc(C(=O)N2CCc3c([nH]c4ccccc34)C2C(=O)O)o1 (stereo not drawn)
- TGI (786-0 renal): > 10 µM
- TGI (SNB-75 CNS): > 10 µM
- TGI (PC-3 prostate): > 10 µM
- TGI (SNB-19 CNS): > 10 µM
- TGI (SF-295 CNS): > 10 µM
- TGI (DU-145 prostate): > 10 µM
- TGI (OVCAR-8 ovarian): > 10 µM
- TGI (EKVX NSCLC): > 10 µM
- TGI (HOP-62 NSCLC): > 10 µM

Compound: N=C1N(c2ccccc2)C(=O)C23CCCC2C13N1CCOCC1 (stereo not drawn)
- TGI (786-0 renal): > 100 µM
- TGI (SNB-75 CNS): > 100 µM
- TGI (NCI-H226 lung): > 100 µM
- TGI (SNB-19 CNS): > 100 µM
- TGI (SF-295 CNS): > 100 µM
- TGI (OVCAR-8 ovarian): > 100 µM
- TGI (EKVX NSCLC): > 100 µM
- TGI (HOP-62 NSCLC): > 100 µM

Compound: CCCCCCCC/C=C/CCCCCCCC1=NC(C)(C)CN1C(C)C
- GI50 (786-0 renal): 1.58 µM
- TGI (786-0 renal): 2.93 µM
- GI50 (SNB-75 CNS): 1.56 µM
- TGI (SNB-75 CNS): 2.9 µM
- GI50 (NCI-H226 lung): 1.75 µM
- TGI (NCI-H226 lung): 4.52 µM
- GI50 (PC-3 prostate): 1.31 µM
- TGI (PC-3 prostate): 2.83 µM
- GI50 (SNB-19 CNS): 2.17 µM
- TGI (SNB-19 CNS): 7.49 µM
- GI50 (SF-295 CNS): 1.64 µM
- TGI (SF-295 CNS): 3.07 µM
- GI50 (DU-145 prostate): 1.63 µM
- TGI (DU-145 prostate): 2.99 µM
- GI50 (EKVX NSCLC): 1.56 µM
- TGI (EKVX NSCLC): 3.27 µM
- GI50 (HOP-62 NSCLC): 1.58 µM
- TGI (HOP-62 NSCLC): 2.92 µM

Compound: CCC(C)OC(=O)C1C2CCC(O2)C1C(=O)O (stereo not drawn)
- TGI (786-0 renal): > 62.7 µM
- TGI (SNB-75 CNS): > 100 µM
- TGI (NCI-H226 lung): > 100 µM
- TGI (SNB-19 CNS): > 100 µM
- TGI (SF-295 CNS): > 100 µM
- TGI (OVCAR-8 ovarian): > 100 µM
- TGI (EKVX NSCLC): > 100 µM
- TGI (HOP-62 NSCLC): > 100 µM

Compound: COC1C=CC(C(=O)[N+]2=Cc3[nH]c4ccccc4c3CC2)O1 (stereo not drawn)
- TGI (786-0 renal): > 100 µM
- TGI (SNB-75 CNS): > 100 µM
- TGI (NCI-H226 lung): > 100 µM
- TGI (SNB-19 CNS): > 100 µM
- TGI (SF-295 CNS): > 100 µM
- TGI (OVCAR-8 ovarian): > 100 µM
- TGI (EKVX NSCLC): > 100 µM
- TGI (HOP-62 NSCLC): > 100 µM

Compound: COc1ccc(-c2cnc3ccnn3c2-c2cc(OC)c(OC)c(OC)c2)cc1
- GI50 (786-0 renal): 4.31 µM
- TGI (786-0 renal): > 100 µM
- GI50 (SNB-75 CNS): 2.2 µM
- TGI (SNB-75 CNS): 62.7 µM
- GI50 (NCI-H226 lung): 8.13 µM
- TGI (NCI-H226 lung): > 100 µM
- GI50 (PC-3 prostate): 2 µM
- TGI (PC-3 prostate): > 100 µM
- GI50 (SNB-19 CNS): 5.16 µM
- TGI (SNB-19 CNS): > 100 µM
- GI50 (SF-295 CNS): 1.93 µM
- TGI (SF-295 CNS): 20 µM
- GI50 (DU-145 prostate): 4.23 µM
- TGI (DU-145 prostate): > 100 µM
- GI50 (OVCAR-8 ovarian): 7.25 µM
- TGI (OVCAR-8 ovarian): > 100 µM
- GI50 (HOP-62 NSCLC): 7.49 µM
- TGI (HOP-62 NSCLC): > 100 µM

Compound: Cc1cc(O)c(C(c2cccnc2)c2c(O)cc(C)[nH]c2=O)c(=O)[nH]1
- TGI (786-0 renal): > 100 µM
- TGI (PC-3 prostate): > 100 µM
- TGI (SNB-19 CNS): > 100 µM
- TGI (SF-295 CNS): > 100 µM
- TGI (DU-145 prostate): > 100 µM
- TGI (OVCAR-8 ovarian): > 100 µM
- TGI (EKVX NSCLC): > 100 µM
- TGI (HOP-62 NSCLC): > 100 µM

Compound: Cc1cc(C)c(O)c(Cc2cccc(Cc3cc(C)cc(C)c3O)c2O)c1
- TGI (786-0 renal): > 100 µM
- TGI (SNB-75 CNS): > 100 µM
- TGI (PC-3 prostate): > 100 µM
- TGI (SNB-19 CNS): > 100 µM
- TGI (SF-295 CNS): > 100 µM
- TGI (DU-145 prostate): > 100 µM
- TGI (OVCAR-8 ovarian): > 100 µM
- TGI (EKVX NSCLC): > 100 µM
- TGI (HOP-62 NSCLC): > 100 µM

Compound: COC(=O)C1(C(=O)OC)CC2c3c(c4ccccc4n3C)CC(C1=O)N2Cc1ccccc1 (stereo not drawn)
- TGI (786-0 renal): > 100 µM
- TGI (SNB-75 CNS): 92 µM
- TGI (NCI-H226 lung): > 100 µM
- TGI (SNB-19 CNS): > 100 µM
- TGI (SF-295 CNS): > 100 µM
- TGI (OVCAR-8 ovarian): > 100 µM
- TGI (EKVX NSCLC): > 100 µM
- TGI (HOP-62 NSCLC): > 100 µM

Compound: COC(=O)C(=O)C(C(=O)C(=O)Nc1ccc(Cl)cc1C)c1nc2ccc(C(=O)c3ccccc3)cc2[nH]c1=O (stereo not drawn)
- TGI (786-0 renal): > 100 µM
- TGI (SNB-75 CNS): > 100 µM
- TGI (NCI-H226 lung): > 100 µM
- TGI (SNB-19 CNS): > 100 µM
- TGI (SF-295 CNS): > 100 µM
- TGI (OVCAR-8 ovarian): > 100 µM
- TGI (EKVX NSCLC): > 100 µM
- TGI (HOP-62 NSCLC): > 100 µM
